These results are taken from patent US9936705B2, “Biocide formulation for protecting the skin, comprising pentahydrate copper salts and heptahydrate zinc salts” (priority 2014, dated 2018).

Holding throughout (test): Sensitivity to antimicrobial agents, Kirby-Bauer disk methodology
What all share (type): cell-based

The test system of experiment [1] is CNS. To be noted: clinical bovine mastitis isolates. The protocol:
(§1) The following antimicrobial agents were assessed (Oxoid Ltd. Hampshire, England): • Amoxicillin/clavulanic acid (AMC), • Trimethropin/sulfamethoxazole (SXT), • Cefotaxime (CTX), • Gentamicin (GN) and • Neomycin (NE).
(§2) The bacterial specimens were analyzed according to the Kirby-Bauer disk methodology following the recommendations provided by the guidelines of the Clinical Laboratory Standards Institute (CLSI 2012b) and the BSAC standard (Andrews and Trial 2008).
(§3) The microorganisms were incubated in Mueller Hinton agar plates at 35° C. for 18-24 hours in aerobics atmosphere. As quality control E. coli (ATCC 25922) and Staphylococcus aureus (25923) were used. The CLSI cut-off points were used to interpret the susceptibility of all microbial agents. For the determination of the cut-off point value for neomycin (NE), the BSAC standard was applied.

For experiment [2], the system named is E. coli. To be noted: Central Region, clinical bovine mastitis isolates. On the procedure: as §1, §2, §3
The test system of experiment [3] is S. aureus. As to conditions: Southern Region, clinical bovine mastitis isolates. The protocol:
as §1, §2, §3

In experiment [4] the test system is S. uberis. To be noted: Southern Region, clinical bovine mastitis isolates. On the procedure:
as §1, §2, §3

Where “and” joins values, the source holds several entries; their conditions need not be identical. Identical values can stand only once.

In the case of Trimethropin/sulfamethoxazole [SXT], the “Resistant (%)” value in experiment [1] (Central Region) is reported as 0.0%; in experiment [1] (Southern Region), 0.0%; in experiment [2] it was 15.4%; in experiment [3], 3.6%; in experiment [4] it was 0.0%. Also, the “Resistant N°” value is on record as 0 in experiment [1] (Central Region); 0 in experiment [1] (Southern Region); 2 in experiment [2]; 1 in experiment [3]; 0 in experiment [4].

As for Amoxicillin/clavulanic acid [AMC], the “Resistant (%)” value in experiment [1] (Central Region) came out at 0.0%; in experiment [1] (Southern Region) it was 0.0%; in experiment [2], 23.0%; in experiment [3], 7.1%; in experiment [4], 0.0%. Also, the “Resistant N°” value in experiment [1] (Central Region) came out at 0; in experiment [1] (Southern Region) it was 0; in experiment [2], 3; in experiment [3], 2; in experiment [4], 0.

As to Gentamicin [GN], the “Resistant (%)” value in experiment [1] (Central Region) was 0.0%; in experiment [1] (Southern Region), 0.0%; in experiment [2], 15.4%; in experiment [3], 0.0%; in experiment [4], 43% and 42.9%. The “Resistant N°” value in experiment [1] (Central Region) is reported as 0; in experiment [1] (Southern Region), 0; in experiment [2], 2; in experiment [3], 0; in experiment [4], 9.

Take `NC[C@@H]1O[C@H](O[C@H]2[C@@H](O)[C@H](O[C@@H]3[C@@H](O)[C@H](N)C[C@H](N)[C@H]3O[C@H]3O[C@H](CN)[C@@H](O)[C@H](O)[C@H]3N)O[C@@H]2CO)[C@H](N)[C@@H](O)[C@@H]1O` [Ne, Neomycin]: the “Resistant (%)” value in experiment [1] (Central Region) is 15.4%; in experiment [1] (Southern Region) it was 5.9%; in experiment [2], 54% and 53.8%; in experiment [3], 21.4%; in experiment [4], 52% and 52.4%. The “Resistant N°” value worked out at 2 in experiment [1] (Central Region); 1 in experiment [1] (Southern Region); 7 in experiment [2]; 6 in experiment [3]; 11 in experiment [4].

Turning to `CO/N=C(\C(=O)N[C@@H]1C(=O)N2C(C(=O)O)=C(COC(C)=O)CS[C@H]12)c1csc(N)n1` [CTX, Cefotaxime], the “Resistant (%)” value in experiment [1] (Central Region) was found to be 0.0%; in experiment [1] (Southern Region), 5.9%; in experiment [2] it was 15.4%; in experiment [3], 3.6%; in experiment [4] it was 23.8%; in experiment [4] (listed as CTK) it was 24%. The “Resistant N°” value in experiment [1] (Central Region) was 0; in experiment [1] (Southern Region) it was 1; in experiment [2] it was 2; in experiment [3], 1; in experiment [4], 5.
